From patent publication US9957263B2, “Bromodomain inhibitors” (AbbVie Inc., priority 2013, dated 2018)

What was measured:
BRD4 (BDI_K57-E168) = BRD4 (BDI_K57-E168) (Homo sapiens (Human), UniProt O60885); assay: TR-FRET bromodomain binding assay, BRD4 first bromodomain; conditions: His-tagged BD1, Alexa647-labeled probe 100 nM
How it was run: (§1)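 Competition of compound (50 μM-0.85 nM, 2% DMSO) against an Alexa647-labelled BET-inhibitor probe, 100 nM for BDI or 30 nM for BDII, on 8 nM His-BRD4 bromodomain detected by 1 nM Eu-anti-His; 20 mM sodium phosphate pH 6.0, 1 h room temperature. Normalised to unlabelled-probe controls; IC50 converted to Ki.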

BRD4 (BDII_E352-M457) = BRD4 (BDII_E352-M457) (Homo sapiens (Human), UniProt O60885); assay: TR-FRET bromodomain binding assay, BRD4 second bromodomain; conditions: His-tagged BD2, Alexa647-labeled probe 30 nM
How it was run: as §1

[1] = tested on: breast cancer cell line MX-1; assay: MX-1 cell line proliferation assay, Method B; format: cell-based; conditions: Homo sapiens, MX1; MX-1 cells, 384-well, 72 hours, Cell Titer Glo; read-out: Cellular proliferation: EC50 Method B
Protocol: The impact of compounds of the Examples on cancer cell proliferation was determined using the breast cancer cell line MX-1 (ATCC) in a 3-day proliferation assay and the data are reported in Table 1.
Method B: MX-1 cells were maintained in RPMI 1640 medium (Sigma) supplemented with 10% FBS at 37 C.° and an atmosphere of 5% CO2. For compound testing, MX-1 cells were plated in 384-well white with clear, flat bottom plates at a density of 750 cells/well in 25 μL of culture media and incubated at 370 overnight to allow cell adhesion and spreading. Ten point compound dilution series were prepared in DMSO via a 3-fold serial dilution from either […] or 1 μM stock and added directly to the appropriate wells of the MX-1 cell plate by an ECHO liquid handler (Labcyte). The final compound concentrations in the wells were 10, 3.25, 1, 0.25, 0.124, 0.040, 0.0124, 0.0031, 0.0015 and 0.0005 μM or 1, 0.33, 0.1, 0.025, 0.0124, 0.004, 0.0012, 0.0003, 0.00015, 0.00005 μM, depending on the concentration of the compound stock solution.
Luminescence readings from the Cell Titer Glo assay were normalized to the DMSO treated cells and analyzed using Accelrys Assay Explorer 3.3 software with sigmoidal curve fitting to obtain ECsos. The minimum significant ratio (MSR) was determined to evaluate assay reproducibility (Eastwood et al., (2006) J Biomol Screen, 11: 253-261). The overall MSR was determined to be 3.3 and a moving MSR (last six run MSR overtime) has averaged

| Ki (BRD4 (BDI_K57-E168)) | Ki (BRD4 (BDII_E352-M457)) | EC50 [1] | Compound |
| --- | --- | --- | --- |
| 2.81 nM | 0.669 nM | – | CCS(=O)(=O)c1ccc(OC2CCCCC2)c(-c2cn(C)c(=O)c3[nH]c(-c4cnn(C5CCNCC5)c4)cc23)c1 [Example 149, 4-[2-(cyclohexyloxy)-5-(ethylsulfonyl)phenyl]-6-methyl-2-[1-(piperidin-4-yl)-1H-pyrazol-4-yl]-1,6-dihydro-7H-pyrrolo[2,3-c]pyridin-7-one] |
| 2680 nM | 73.9 nM | – | CCNC(=O)c1cc2c(-c3cc(S(=O)(=O)CC)ccc3Oc3c(C)cccc3Cn3ccnc3)cn(C)c(=O)c2[nH]1 [Example 150, N-ethyl-4-{5-(ethylsulfonyl)-2-[2-(1H-imidazol-1-ylmethyl)-6-methylphenoxy]phenyl}-6-methyl-7-oxo-6,7-dihydro-1H-pyrrolo[2,3-c]pyridine-2-carboxamide] |
| 813 nM | 9.95 nM | – | CCNC(=O)c1cc2c(-c3cc(S(=O)(=O)CC)ccc3Oc3c(C)cccc3CN3CCCC3=O)cn(C)c(=O)c2[nH]1 [Example 151, N-ethyl-4-[5-(ethylsulfonyl)-2-{2-methyl-6-[(2-oxopyrrolidin-1-yl)methyl]phenoxy}phenyl]-6-methyl-7-oxo-6,7-dihydro-1H-pyrrolo[2,3-c]pyridine-2-carboxamide] |
| 2080 nM | 36 nM | – | CCNC(=O)c1cc2c(-c3cc(S(=O)(=O)CC)ccc3Oc3c(C)cccc3CN3CCCS3(=O)=O)cn(C)c(=O)c2[nH]1 [Example 152, 4-[2-{2-[(1,1-dioxido-1,2-thiazolidin-2-yl)methyl]-6-methylphenoxy}-5-(ethylsulfonyl)phenyl]-N-ethyl-6-methyl-7-oxo-6,7-dihydro-1H-pyrrolo[2,3-c]pyridine-2-carboxamide] |
| 1040 nM | 2.61 nM | – | CCNC(=O)c1cc2c(-c3ccc(C(=O)N(CC(=O)NC)Cc4ccccn4)cc3Oc3c(C)cccc3C)cn(C)c(=O)c2[nH]1 [Example 153, 4-[2-(2,6-dimethylphenoxy)-4-{[2-(methylamino)-2-oxoethyl](pyridin-2-ylmethyl)carbamoyl}phenyl]-N-ethyl-6-methyl-7-oxo-6,7-dihydro-1H-pyrrolo[2,3-c]pyridine-2-carboxamide] |
| 1040 nM | 13.7 nM | – | CCNC(=O)c1cc2c(-c3ccc(C(=O)N(C)C4CCN(OC(=O)CC)CC4)cc3Oc3c(C)cccc3C)cn(C)c(=O)c2[nH]1 [Example 154, 4-[2-(2,6-dimethylphenoxy)-4-{methyl[1-(propanoyloxy)piperidin-4-yl]carbamoyl}phenyl]-N-ethyl-6-methyl-7-oxo-6,7-dihydro-1H-pyrrolo[2,3-c]pyridine-2-carboxamide] |
| 23.7 nM | 364 nM | – | CN(C)C(=O)C1(N2CCCC2=O)CCN(Cc2cc3c(-c4cc(S(C)(=O)=O)ccc4Oc4ccc(F)cc4F)cn(C)c(=O)c3[nH]2)CC1 [Example 155, 1-({4-[2-(2,4-difluorophenoxy)-5-(methylsulfonyl)phenyl]-6-methyl-7-oxo-6,7-dihydro-1H-pyrrolo[2,3-c]pyridin-2-yl}methyl)-N,N-dimethyl-4-(2-oxopyrrolidin-1-yl)piperidine-4-carboxamide] |
| 26.8 nM | 42.3 nM | – | Cn1cc(-c2cc(S(C)(=O)=O)ccc2Oc2ccc(F)cc2F)c2cc(CN3CC(n4cncn4)C3)[nH]c2c1=O [Example 156, 4-[2-(2,4-difluorophenoxy)-5-(methylsulfonyl)phenyl]-6-methyl-2-{[3-(1H-1,2,4-triazol-1-yl)azetidin-1-yl]methyl}-1,6-dihydro-7H-pyrrolo[2,3-c]pyridin-7-one] |
| 387 nM | 16.9 nM | – | CCNC(=O)c1cc2c(-c3cc(S(=O)(=O)CC)ccc3Oc3c(C)cccc3CN3CCC3=O)cn(C)c(=O)c2[nH]1 [Example 157, N-ethyl-4-[5-(ethylsulfonyl)-2-{2-methyl-6-[(2-oxoazetidin-1-yl)methyl]phenoxy}phenyl]-6-methyl-7-oxo-6,7-dihydro-1H-pyrrolo[2,3-c]pyridine-2-carboxamide] |
| 883 nM | 28.5 nM | – | CCNC(=O)c1cc2c(-c3cc(S(=O)(=O)CC)ccc3Oc3c(C)cccc3Cn3ccccc3=O)cn(C)c(=O)c2[nH]1 [Example 158, N-ethyl-4-[5-(ethylsulfonyl)-2-{2-methyl-6-[(2-oxopyridin-1(2H)-yl)methyl]phenoxy}phenyl]-6-methyl-7-oxo-6,7-dihydro-1H-pyrrolo[2,3-c]pyridine-2-carboxamide] |
| 230 nM | 156 nM | – | Cn1cc(-c2cc(S(C)(=O)=O)ccc2Oc2ccc(F)cc2F)c2cc(CNCCC(N)=O)[nH]c2c1=O [Example 159, 3-[({4-[2-(2,4-difluorophenoxy)-5-(methylsulfonyl)phenyl]-6-methyl-7-oxo-6,7-dihydro-1H-pyrrolo[2,3-c]pyridin-2-yl}methyl)amino]propanamide] |
| 1710 nM | 9.99 nM | – | CCNC(=O)c1cc2c(-c3ccc(C(=O)N(CCC(=O)OC)c4ccccc4)cc3Oc3c(C)cccc3C)cn(C)c(=O)c2[nH]1 [Example 160, methyl 3-[{3-(2,6-dimethylphenoxy)-4-[2-(ethylcarbamoyl)-6-methyl-7-oxo-6,7-dihydro-1H-pyrrolo[2,3-c]pyridin-4-yl]benzoyl}(phenyl)amino]propanoate] |
| 1050 nM | 3.16 nM | – | CCNC(=O)c1cc2c(-c3ccc(C(=O)N(CCCN4CCOCC4)Cc4ccccc4)cc3Oc3c(C)cccc3C)cn(C)c(=O)c2[nH]1 [Example 161, 4-[4-{benzyl[3-(morpholin-4-yl)propyl]carbamoyl}-2-(2,6-dimethylphenoxy)phenyl]-N-ethyl-6-methyl-7-oxo-6,7-dihydro-1H-pyrrolo[2,3-c]pyridine-2-carboxamide] |
| > 12700 nM | 88.6 nM | – | CCNC(=O)c1cc2c(-c3ccc(C(=O)N(CCN4CCSCC4)c4ccc(Cl)c(Cl)c4)cc3Oc3c(C)cccc3C)cn(C)c(=O)c2[nH]1 [Example 162, 4-[4-{(3,4-dichlorophenyl)[2-(thiomorpholin-4-yl)ethyl]carbamoyl}-2-(2,6-dimethylphenoxy)phenyl]-N-ethyl-6-methyl-7-oxo-6,7-dihydro-1H-pyrrolo[2,3-c]pyridine-2-carboxamide] |
| 1.64 nM | 0.605 nM | – | CCS(=O)(=O)Nc1ccc(Oc2ccc(F)cc2F)c(-c2cn(C)c(=O)c3[nH]c(C#CCOC)cc23)c1 [Example 163, N-{4-(2,4-difluorophenoxy)-3-[2-(3-methoxyprop-1-yn-1-yl)-6-methyl-7-oxo-6,7-dihydro-1H-pyrrolo[2,3-c]pyridin-4-yl]phenyl}ethanesulfonamide] |
| – | 15.1 nM | 10000 nM | CCNC(=O)c1cc2c(-c3cc(S(=O)(=O)CC)ccc3Oc3c(C)cccc3CCC3CCCC3)cn(C)c(=O)c2[nH]1 [Example 164, 4-{2-[2-(2-cyclopentylethyl)-6-methylphenoxy]-5-(ethylsulfonyl)phenyl}-N-ethyl-6-methyl-7-oxo-6,7-dihydro-1H-pyrrolo[2,3-c]pyridine-2-carboxamide] |
| 429 nM | 4.48 nM | 1460 nM | CCNC(=O)c1cc2c(-c3ccc(C(=O)N(CCCN4CCCC4)C(C)Cc4ccccc4)cc3Oc3c(C)cccc3C)cn(C)c(=O)c2[nH]1 (centres unmarked) [Example 165, 4-[2-(2,6-dimethylphenoxy)-4-{(1-phenylpropan-2-yl) [3-(pyrrolidin-1-yl)propyl]carbamoyl}phenyl]-N-ethyl-6-methyl-7-oxo-6,7-dihydro-1H-pyrrolo[2,3-c]pyridine-2-carboxamide] |
| > 12700 nM | 17.5 nM | 3030 nM | CCNC(=O)c1cc2c(-c3ccc(C(=O)N(CC#N)C(C)Cc4ccccc4)cc3Oc3c(C)cccc3C)cn(C)c(=O)c2[nH]1 (centres unmarked) [Example 166, 4-{4-[(cyanomethyl)(1-phenylpropan-2-yl)carbamoyl]-2-(2,6-dimethylphenoxy)phenyl}-N-ethyl-6-methyl-7-oxo-6,7-dihydro-1H-pyrrolo[2,3-c]pyridine-2-carboxamide] |
| > 12700 nM | 34.4 nM | 2020 nM | CCNC(=O)c1cc2c(-c3ccc(C(=O)N(CC#N)CC(C)c4ccccc4)cc3Oc3c(C)cccc3C)cn(C)c(=O)c2[nH]1 (centres unmarked) [Example 167, 4-{4-[(cyanomethyl)(2-phenylpropyl)carbamoyl]-2-(2,6-dimethylphenoxy)phenyl}-N-ethyl-6-methyl-7-oxo-6,7-dihydro-1H-pyrrolo[2,3-c]pyridine-2-carboxamide] |
